These results are taken from US20120010075A1 (priority 2009, published 2012).

Data set [1] relates to Leptosphaeria nodorum (LEPTNO). The data set is described as follows: In vitro fungitoxicity of hydrazones with and without copper towards Leptosphaeria nodorum (Example 26). The data set is classed as cell-based. As to conditions: compound 0.05 μg/mL, 72 h at 25° C.; for inhibition of growth at 0.05 µg/mL: Parastagonospora nodorum, 72 h, copper-minus medium, read-out: LEPTNO % Inhn. Minus Copper Observed; for LEPTNO % Inhn. Plus Copper Observed: copper-plus medium (CuCl2.2H2O).

In another data set the test system is Phytophthora infestans. The data set is classed as in vivo, Phytophthora infestans on tomato. As to conditions: hydrazone 50 ppm + 50 μM CuCl2.2H2O, applied 24 h before inoculation, assessed 7 days after inoculation, tomato.

In the case of `Cc1ccc(O)c(/C=N/NC(=O)c2ccccc2)c1` [Example 235], the melting point lay within 192 to 193 °C. In data set [1], the inhibition of growth at 0.05 µg/mL was 0% and the “LEPTNO % Inhn. Plus Copper Observed” value worked out at 96.3%. In addition, the “TLB % Control” value in the data set on Phytophthora infestans is on record as 80.0%.
`COc1cccc(O)c1/C=N/NC(=O)c1ccccc1` [Example 237] gave a melting point of 215 to 216 °C. In data set [1], the inhibition of growth at 0.05 µg/mL worked out at 0% and the “LEPTNO % Inhn. Plus Copper Observed” value is recorded as 91.8%. Also, the “TLB % Control” value with Phytophthora infestans is on record as 45.0%.
`Cc1cc(O)c(/C=N/NC(=O)c2ccccc2)cc1Cl` [Example 239] registered a melting point of 206 to 208 °C. In data set [1], the inhibition of growth at 0.05 µg/mL came out at 0.1% and the “LEPTNO % Inhn. Plus Copper Observed” value amounted to 97.8%. Moreover, in the data set on Phytophthora infestans, the “TLB % Control” value is recorded as 66.1%.
`O=C(N/N=C/c1cc(Cl)c(Cl)cc1O)c1ccccc1` [Example 240]: the melting point fell in the range of 238 to 241 °C. In data set [1], the inhibition of growth at 0.05 µg/mL turned out to be 0% and the “LEPTNO % Inhn. Plus Copper Observed” value amounted to 98.1%. Moreover, the “TLB % Control” value in the data set on Phytophthora infestans turned out to be 74.6%.
On to `O=C(N/N=C/c1c(O)ccc(Cl)c1Cl)c1ccccc1` [Example 241], for which the melting point fell in the range of 273 to 274 °C. Also, in data set [1], the inhibition of growth at 0.05 µg/mL came out at 0.5% and the “LEPTNO % Inhn. Plus Copper Observed” value was found to be 97.0%. For the same compound, in the data set with Phytophthora infestans, the “TLB % Control” value was 62.7%.
`O=C(N/N=C/c1c(O)cc(Cl)cc1Cl)c1ccccc1` [Example 242]: the melting point was 273 to 274 °C. Also, in data set [1], the inhibition of growth at 0.05 µg/mL came out at 6.9% and the “LEPTNO % Inhn. Plus Copper Observed” value was 98.0%. In the data set on Phytophthora infestans, the “TLB % Control” value is listed as 78.0%.
On to `COc1ccc(Br)c(/C=N/NC(=O)c2ccccc2)c1O` [Example 243], for which the melting point fell in the range of 187 to 189 °C. Further, in data set [1], the inhibition of growth at 0.05 µg/mL stood at 5.3% and the “LEPTNO % Inhn. Plus Copper Observed” value amounted to 96.7%. The “TLB % Control” value in the data set with Phytophthora infestans is 86.4%.
The compound `O=C(N/N=C/c1c(F)ccc(F)c1O)c1ccccc1` [Example 244] gave a melting point of 206 to 207 °C. In addition, in data set [1], the inhibition of growth at 0.05 µg/mL turned out to be 0% and the “LEPTNO % Inhn. Plus Copper Observed” value is on record as 96.1%. In addition, in the data set with Phytophthora infestans, the “TLB % Control” value is recorded as 62.7%.
Compound `O=C(N/N=C/c1c(O)cccc1F)c1ccccc1` [Example 245] registered a melting point of 216 to 218 °C. In data set [1], the inhibition of growth at 0.05 µg/mL was found to be 0% and the “LEPTNO % Inhn. Plus Copper Observed” value was found to be 96.7%. Besides, the “TLB % Control” value in the data set on Phytophthora infestans is 52.7%.
The compound `Cc1cccc(O)c1/C=N/NC(=O)c1ccccc1` [Example 246] came in with a melting point of 212 to 213 °C. Moreover, in data set [1], the inhibition of growth at 0.05 µg/mL turned out to be 0% and the “LEPTNO % Inhn. Plus Copper Observed” value was 95.3%. Also, the “TLB % Control” value in the data set with Phytophthora infestans stood at 50.9%.
`O=C(N/N=C/c1c(Cl)ccc(Cl)c1O)c1ccccc1` [Example 247] returned a melting point of 204 to 205 °C. Moreover, in data set [1], the inhibition of growth at 0.05 µg/mL was 10.1% and the “LEPTNO % Inhn. Plus Copper Observed” value amounted to 94.0%. Further, the “TLB % Control” value with Phytophthora infestans is listed as 84.7%.
The compound `O=C(N/N=C/c1cc(Cl)cc(Cl)c1O)c1cccc([N+](=O)[O-])c1` [Example 248] displayed a melting point of 234 to 237 °C. Moreover, in data set [1], the inhibition of growth at 0.05 µg/mL worked out at 12.4% and the “LEPTNO % Inhn. Plus Copper Observed” value is listed as 96.3%. Also, the “TLB % Control” value in the data set on Phytophthora infestans is 98.0%.
Regarding `O=C(N/N=C/c1cc(Cl)cc(Cl)c1O)c1cccc(C(F)(F)F)c1` [Example 249], the melting point fell in the range of 165 to 169 °C. Further, in data set [1], the inhibition of growth at 0.05 µg/mL was 27.8% and the “LEPTNO % Inhn. Plus Copper Observed” value is on record as 95.8%. In addition, the “TLB % Control” value in the data set with Phytophthora infestans was 100.0%.
For the compound `O=C(N/N=C/c1cc(Cl)cc(Cl)c1O)c1cccc(OC(F)(F)F)c1` [Example 250], the melting point was 180 to 182 °C. Moreover, in data set [1], the inhibition of growth at 0.05 µg/mL came out at 8.7% and the “LEPTNO % Inhn. Plus Copper Observed” value turned out to be 98.1%. Also, the “TLB % Control” value in the data set with Phytophthora infestans worked out at 97.0%.
On the same counts, the results for `C/C(=N\NC(=O)c1ccccc1)c1ccc(Cl)cc1O` [Example 251] are 236 to 237 °C, 3.5%, 98.1% and 33.0%.
In turn, `C/C(=N\NC(=O)c1ccccc1C)c1ccc(Cl)cc1O` [Example 252] yielded a melting point of 214 to 215 °C. Further, in data set [1], the inhibition of growth at 0.05 µg/mL turned out to be 7.8% and the “LEPTNO % Inhn. Plus Copper Observed” value worked out at 98.4%. Further, the “TLB % Control” value in the data set with Phytophthora infestans is 28.0%.
The compound `C/C(=N\NC(=O)c1cccc(C)c1)c1ccc(Cl)cc1O` [Example 253] displayed a melting point of 210 to 211 °C. Also, in data set [1], the inhibition of growth at 0.05 µg/mL was 4.9% and the “LEPTNO % Inhn. Plus Copper Observed” value amounted to 98.0%. Moreover, the “TLB % Control” value in the data set with Phytophthora infestans came out at 14.0%.
In turn, `C/C(=N\NC(=O)c1ccc(C)cc1)c1ccc(Cl)cc1O` [Example 254] displayed a melting point of 254 to 256 °C. In data set [1], the inhibition of growth at 0.05 µg/mL came out at 8.3% and the “LEPTNO % Inhn. Plus Copper Observed” value stood at 98.1%. Besides, the “TLB % Control” value in the data set on Phytophthora infestans amounted to 0.0%.
As for `C/C(=N\NC(=O)c1ccccc1Cl)c1ccc(Cl)cc1O` [Example 255], the melting point was 183 to 184 °C. Further, in data set [1], the inhibition of growth at 0.05 µg/mL worked out at 3.6% and the “LEPTNO % Inhn. Plus Copper Observed” value came out at 98.2%. Besides, the “TLB % Control” value with Phytophthora infestans was determined as 28.0%.
The compound `C/C(=N\NC(=O)c1cccc(Cl)c1)c1ccc(Cl)cc1O` [Example 256] returned a melting point of 222 to 223 °C. In data set [1], the inhibition of growth at 0.05 µg/mL was found to be 3% and the “LEPTNO % Inhn. Plus Copper Observed” value is given as 98.7%. In the data set on Phytophthora infestans, the “TLB % Control” value was 18.0%.
On the same counts, the results for `C/C(=N\NC(=O)c1ccc(Cl)cc1)c1ccc(Cl)cc1O` [Example 257] are 246 to 247 °C, 6%, 94.4% and 21.0%.
On the same counts, the results for `Cc1ccc(O)c(C(=O)N/N=C/c2cc(Cl)cc(Cl)c2O)c1` [Example 258] are 277 to 280 °C, 34.1%, 97.4% and 87.0%.
As to `CNc1ccc(C(=O)N/N=C/c2cc(Cl)cc(Cl)c2O)cc1` [Example 259], the melting point is 245 to 253 °C. For the same compound, in data set [1], the inhibition of growth at 0.05 µg/mL was determined as 9.9% and the “LEPTNO % Inhn. Plus Copper Observed” value was found to be 97.9%. The “TLB % Control” value with Phytophthora infestans stood at 32.0%.
Consider `CCc1ccc(C(=O)N/N=C/c2cc(Cl)cc(Cl)c2O)cc1` [Example 260], for which the melting point fell in the range of 286 to 289 °C. Also, in data set [1], the inhibition of growth at 0.05 µg/mL came to 11.2% and the “LEPTNO % Inhn. Plus Copper Observed” value is reported as 97.1%. For the same compound, in the data set with Phytophthora infestans, the “TLB % Control” value was 81.0%.
In the case of `COc1ccc(O)c(/C(C)=N/NC(=O)c2ccccc2)c1` [Example 261], the melting point is 150 to 152 °C. Further, in data set [1], the inhibition of growth at 0.05 µg/mL came out at 2.7% and the “LEPTNO % Inhn. Plus Copper Observed” value was 97.9%. The “TLB % Control” value in the data set with Phytophthora infestans amounted to 10.0%.
Compound `COc1ccc(O)c(/C(C)=N/NC(=O)c2ccccc2C)c1` [Example 262] returned a melting point of 146 to 155 °C. Also, in data set [1], the inhibition of growth at 0.05 µg/mL was 3.1% and the “LEPTNO % Inhn. Plus Copper Observed” value turned out to be 94.0%. Moreover, in the data set with Phytophthora infestans, the “TLB % Control” value is 4.6%.
Compound `COc1ccc(O)c(/C(C)=N/NC(=O)c2cccc(C)c2)c1` [Example 263] yielded a melting point of 131 to 141 °C. Moreover, in data set [1], the inhibition of growth at 0.05 µg/mL came to 4.1% and the “LEPTNO % Inhn. Plus Copper Observed” value worked out at 97.9%. Further, in the data set on Phytophthora infestans, the “TLB % Control” value is given as 14.0%.
With `COc1ccc(O)c(/C(C)=N/NC(=O)c2ccc(C)cc2)c1` [Example 264], the melting point was 159 to 162 °C. In data set [1], the inhibition of growth at 0.05 µg/mL amounted to 6% and the “LEPTNO % Inhn. Plus Copper Observed” value is given as 98.4%. Also, the “TLB % Control” value with Phytophthora infestans is 21.0%.
The compound `COc1ccc(O)c(/C(C)=N/NC(=O)c2ccccc2Cl)c1` [Example 265] returned a melting point of 170 to 184 °C. In data set [1], the inhibition of growth at 0.05 µg/mL was 0% and the “LEPTNO % Inhn. Plus Copper Observed” value is 98.1%. Besides, in the data set on Phytophthora infestans, the “TLB % Control” value worked out at 15.0%.
For `COc1ccc(O)c(/C(C)=N/NC(=O)c2cccc(Cl)c2)c1` [Example 266], the melting point was 190 to 201 °C. In data set [1], the inhibition of growth at 0.05 µg/mL turned out to be 4.5% and the “LEPTNO % Inhn. Plus Copper Observed” value is reported as 95.4%. The “TLB % Control” value in the data set with Phytophthora infestans stood at 28.0%.
The matching figures for `COc1ccc(O)c(/C(C)=N/NC(=O)c2ccc(Cl)cc2)c1` [Example 267]: 193 to 196 °C, 5.7%, 98.3% and 33.0%.
The compound `C/C(=N\NC(=O)c1ccccc1)c1cccc([N+](=O)[O-])c1O` [Example 268] returned a melting point of 215 to 224 °C. For the same compound, in data set [1], the inhibition of growth at 0.05 µg/mL is 1.2% and the “LEPTNO % Inhn. Plus Copper Observed” value is given as 98.7%. In addition, the “TLB % Control” value in the data set with Phytophthora infestans is on record as 31.0%.
In the case of `C/C(=N\NC(=O)c1ccccc1C)c1cccc([N+](=O)[O-])c1O` [Example 269], the melting point fell in the range of 193 to 196 °C. Further, in data set [1], the inhibition of growth at 0.05 µg/mL amounted to 0% and the “LEPTNO % Inhn. Plus Copper Observed” value was found to be 98.8%. Besides, the “TLB % Control” value with Phytophthora infestans is given as 21.0%.
In turn, `C/C(=N\NC(=O)c1cccc(C)c1)c1cccc([N+](=O)[O-])c1O` [Example 270] returned a melting point of 235 to 239 °C. Besides, in data set [1], the inhibition of growth at 0.05 µg/mL was found to be 6.9% and the “LEPTNO % Inhn. Plus Copper Observed” value turned out to be 98.6%. Further, the “TLB % Control” value in the data set with Phytophthora infestans was 61.0%.
As for `C/C(=N\NC(=O)c1ccc(C)cc1)c1cccc([N+](=O)[O-])c1O` [Example 271], the melting point lay within 242 to 249 °C. Besides, in data set [1], the inhibition of growth at 0.05 µg/mL amounted to 6.9% and the “LEPTNO % Inhn. Plus Copper Observed” value turned out to be 98.9%. Moreover, in the data set with Phytophthora infestans, the “TLB % Control” value turned out to be 61.0%.

In general, melting point refers to the temperature, or range, at which the solid turns liquid.
